Source: the NIST ThermoML archive (doi:10.1016/j.tca.2015.06.017)

Experiment: xn = mol fraction of the nth substance listed
Conditions: Liquid, Vibrating tube method

CC(C)CCl [1-chloro-2-methylpropane] + CCCCCCC
mass density [kg/m3]
Conditions | 283.15 K | 293.15 K
100 kPa, x2 = 0.0531 | 874.07 | 862.97
100 kPa, x2 = 0.1023 | 861 | 850.09
100 kPa, x2 = 0.2009 | 836.3 | 825.74
100 kPa, x2 = 0.3009 | 813.26 | 803.04
100 kPa, x2 = 0.3981 | 792.55 | 782.63
100 kPa, x2 = 0.4986 | 772.68 | 763.05
100 kPa, x2 = 0.5998 | 754.11 | 744.76
100 kPa, x2 = 0.7038 | 736.38 | 727.31
100 kPa, x2 = 0.7993 | 721.25 | 712.4
100 kPa, x2 = 0.8995 | 706.4 | 697.78
100 kPa, x2 = 0.9507 | 699.19 | 690.68
2000 kPa, x2 = 0.0531 | 876.04 | 865
2000 kPa, x2 = 0.1023 | 862.99 | 852.14
2000 kPa, x2 = 0.2009 | 838.37 | 827.88
2000 kPa, x2 = 0.3009 | 815.32 | 805.15
2000 kPa, x2 = 0.3981 | 794.55 | 784.68
2000 kPa, x2 = 0.4986 | 774.64 | 765.08
2000 kPa, x2 = 0.5998 | 756.04 | 746.74
2000 kPa, x2 = 0.7038 | 738.29 | 729.29
2000 kPa, x2 = 0.7993 | 723.14 | 714.35
2000 kPa, x2 = 0.8995 | 708.31 | 699.74
2000 kPa, x2 = 0.9507 | 701.15 | 692.69
5000 kPa, x2 = 0.0531 | 879.03 | 868.28
5000 kPa, x2 = 0.1023 | 865.96 | 855.4
5000 kPa, x2 = 0.2009 | 841.29 | 831.08
5000 kPa, x2 = 0.3009 | 818.18 | 808.31
5000 kPa, x2 = 0.3981 | 797.37 | 787.79
5000 kPa, x2 = 0.4986 | 777.41 | 768.11
5000 kPa, x2 = 0.5998 | 758.77 | 749.74
5000 kPa, x2 = 0.7038 | 741 | 732.21
5000 kPa, x2 = 0.7993 | 725.78 | 717.25
5000 kPa, x2 = 0.8995 | 710.91 | 702.62
5000 kPa, x2 = 0.9507 | 703.73 | 695.55
7000 kPa, x2 = 0.0531 | 880.97 | 870.39
7000 kPa, x2 = 0.1023 | 867.88 | 857.47
7000 kPa, x2 = 0.2009 | 843.19 | 833.12
7000 kPa, x2 = 0.3009 | 820.06 | 810.3
7000 kPa, x2 = 0.3981 | 799.24 | 789.75
7000 kPa, x2 = 0.4986 | 779.24 | 770.05
7000 kPa, x2 = 0.5998 | 760.58 | 751.63
7000 kPa, x2 = 0.7038 | 742.77 | 734.07
7000 kPa, x2 = 0.7993 | 727.56 | 719.06
7000 kPa, x2 = 0.8995 | 712.67 | 704.42
7000 kPa, x2 = 0.9507 | 705.48 | 697.32
10000 kPa, x2 = 0.0531 | 883.84 | 873.43
10000 kPa, x2 = 0.1023 | 870.72 | 860.49
10000 kPa, x2 = 0.2009 | 845.97 | 836.1
10000 kPa, x2 = 0.3009 | 822.78 | 813.24
10000 kPa, x2 = 0.3981 | 801.92 | 792.65
10000 kPa, x2 = 0.4986 | 781.87 | 772.89
10000 kPa, x2 = 0.5998 | 763.16 | 754.46
10000 kPa, x2 = 0.7038 | 745.31 | 736.87
10000 kPa, x2 = 0.7993 | 730.05 | 721.81
10000 kPa, x2 = 0.8995 | 715.13 | 707.11
10000 kPa, x2 = 0.9507 | 707.91 | 700
20000 kPa, x2 = 0.0531 | 892.78 | 882.96
20000 kPa, x2 = 0.1023 | 879.6 | 869.95
20000 kPa, x2 = 0.2009 | 854.73 | 845.39
20000 kPa, x2 = 0.3009 | 831.42 | 822.38
20000 kPa, x2 = 0.3981 | 810.43 | 801.64
20000 kPa, x2 = 0.4986 | 790.3 | –
20000 kPa, x2 = 0.5998 | 771.47 | –
20000 kPa, x2 = 0.7038 | 753.52 | –
20000 kPa, x2 = 0.7993 | 738.16 | –
20000 kPa, x2 = 0.8995 | 723.13 | –
20000 kPa, x2 = 0.9507 | 715.85 | –
30000 kPa, x2 = 0.0531 | 900.97 | –
30000 kPa, x2 = 0.1023 | 887.68 | –
30000 kPa, x2 = 0.2009 | 862.6 | –
30000 kPa, x2 = 0.3009 | 839.17 | –
30000 kPa, x2 = 0.3981 | 818.12 | –
30000 kPa, x2 = 0.4986 | 797.85 | –
30000 kPa, x2 = 0.5998 | 778.93 | –
30000 kPa, x2 = 0.7038 | 760.8 | –
30000 kPa, x2 = 0.7993 | 745.44 | –
30000 kPa, x2 = 0.8995 | 730.29 | –
30000 kPa, x2 = 0.9507 | 722.95 | –
40000 kPa, x2 = 0.0531 | 908.57 | –
40000 kPa, x2 = 0.1023 | 895.22 | –
40000 kPa, x2 = 0.2009 | 870.06 | –
40000 kPa, x2 = 0.3009 | 846.56 | –
40000 kPa, x2 = 0.3981 | 825.29 | –
40000 kPa, x2 = 0.4986 | 804.92 | –
40000 kPa, x2 = 0.5998 | 785.84 | –
40000 kPa, x2 = 0.7038 | 767.67 | –
40000 kPa, x2 = 0.7993 | 752.19 | –
40000 kPa, x2 = 0.8995 | 736.93 | –
40000 kPa, x2 = 0.9507 | 729.53 | –
50000 kPa, x2 = 0.0531 | 915.66 | –
50000 kPa, x2 = 0.1023 | 902.32 | –
50000 kPa, x2 = 0.2009 | 876.98 | –
50000 kPa, x2 = 0.3009 | 853.42 | –
50000 kPa, x2 = 0.3981 | 832.08 | –
50000 kPa, x2 = 0.4986 | 811.56 | –
50000 kPa, x2 = 0.5998 | 792.36 | –
50000 kPa, x2 = 0.7038 | 774.06 | –
50000 kPa, x2 = 0.7993 | 758.41 | –
50000 kPa, x2 = 0.8995 | 743.05 | –
50000 kPa, x2 = 0.9507 | 735.59 | –
60000 kPa, x2 = 0.0531 | 922.27 | –
60000 kPa, x2 = 0.1023 | 908.86 | –
60000 kPa, x2 = 0.2009 | 883.47 | –
60000 kPa, x2 = 0.3009 | 859.78 | –
60000 kPa, x2 = 0.3981 | 838.33 | –
60000 kPa, x2 = 0.4986 | 817.73 | –
60000 kPa, x2 = 0.5998 | 798.43 | –
60000 kPa, x2 = 0.7038 | 780.03 | –
60000 kPa, x2 = 0.7993 | 764.33 | –
60000 kPa, x2 = 0.8995 | 748.87 | –
60000 kPa, x2 = 0.9507 | 741.35 | –
65000 kPa, x2 = 0.0531 | 925.46 | –
65000 kPa, x2 = 0.1023 | 912 | –
65000 kPa, x2 = 0.2009 | 886.55 | –
65000 kPa, x2 = 0.3009 | 862.78 | –
65000 kPa, x2 = 0.3981 | 841.29 | –
65000 kPa, x2 = 0.4986 | 820.65 | –
65000 kPa, x2 = 0.5998 | 801.22 | –
65000 kPa, x2 = 0.7038 | 782.82 | –
65000 kPa, x2 = 0.7993 | 767.1 | –
65000 kPa, x2 = 0.8995 | 751.59 | –
65000 kPa, x2 = 0.9507 | 744.04 | –
